Experimental data taken from patent US5856175A, “Device for detecting microorganisms” (priority 1996, dated 1999).
Like-named read-outs stand apart in the source and are kept apart here.

What was measured:
Assay type in all cases: cell-based
[1] = test system: Staphylococcus aureus 25923; experiment: Antimicrobial susceptibility pattern using silicone-emulsion CO2 sensors (Table 4)
Description: (§1) Microtiter plates (96 flat bottom wells) containing 0.05% Xylenol blue silicone-emulsion sensors on the bottom were filled with 100 microliters of microbial growth medium containing no antibiotics (growth control wells) and nine different classes of antibiotics. Final concentrations of the antibiotics were achieved after addition of 100 microliters of inoculum (final inoculum of 5×10^7 CFU/ml) of the representative microorganisms. The concentrations of antibiotics used represent those used in determining if the test organism is sensitive, intermediate, or resistant to a particular antibiotic.
(§2) After inoculating the microtiter tray, it was sealed with a pressure sensitive plastic plate sealer and initial readings were taken with a reflectance reader. The plate was then placed into a 37° C. incubator. After four hours incubation, the plate was removed and final reflectance readings were taken.
(§3) The results in Table 4 show a pattern of growth, no growth, or intermediate growth of the four test organisms with the nine classes of antibiotics. This is indicative of the type of susceptibility of the organisms to the antibiotics. The organisms tested vary in their susceptibility pattern because of differences in their physiological makeup.

Escherichia coli 29194 = experiment: as above
Description: as §1, §2, §3

[2] = test system: Pseudomonas aeruginosa 27853; experiment: as above
Description: as §1, §2, §3

[3] = test system: Streptococcus faecalis 29212; experiment: as above
Description: as §1, §2, §3

[4] = test system: Escherichia coli (ATCC number 11775); experiment: Carbon source utilization in carbon dioxide sensor plates (Example 6); details: 0.5% bromosuccinic acid
Method: (§4) 50 ml Kodak Universal Indicator was evaporated to dryness and resuspended in 2 ml HPCL grade isopropanol. 240 mg of phenolphthalein, sodium salt, dissolved in 2 ml of water was added to 1 ml of the concentrated Universal Indicator solution. 150 microliters of CAPS buffer (3-{cyclohexlamino}-1-propanesulfonic acid), pH 10.4, 500 mM was mixed with the phenolphthalein/Universal Indicator solution. This solution was added to 10 grams of GE RTV 615 A silicone that had been degassed for approximately 15 minutes. The silicone and indicator emulsion was mixed by hand stirring. 0.1 grams of white silicone pigment and 2 grams of GE RTV 615 B was added to the mixture. The mixture was hand mixed and degassed for approximately 5 minutes. The emulsion was transferred into a pressurized syringe dispenser fitted to an "air brush" sprayer and sprayed into a polystyrene 24 well plate that had previously been sprayed with 2 coats of GE silicone primer SS 4120. Enough of the indicator/silicone emulsion was sprayed into the wells to coat the bottom surface. The plate was then placed in a humidified oven and cured at 50° C. overnight. This spraying process was repeated on 3 consecutive days for a total of 3 coatings to the wells.
(§5) Two organisms, Escherichia coli (ATCC number 11775) and Pseudomonas aeruginosa (ATCC number 1014), both type strains, were grown overnight (17 hours) in a complex medium as described in Example 3 C, at 37° C., with shaking. The organisms were harvested, spun down at 11950-X-g, at 4° C. for 20 minutes. The supernatant was poured off and the organisms were resuspended in 0.9% sterile saline to an OD600 =5.0.
(§6) Each well of the prepared microtiter plate contained 1 ml of one of the following three media:
(§7) a) a minimal medium buffered with 50 mM Hepes buffer, pH 7.2, containing no carbon source (the negative control);
(§8) b) the same medium as the negative control except that it contained 0.5% bromosuccinic acid; and
(§9) c) an undefined medium Trypticase soy yeast extract medium, buffered with 50 mM Hepes, pH 7.2 (the positive control).
(§10) Twenty microliters of each prepared organism was added to duplicate wells of each type of media.
(§11) The wells were sealed with cork stoppers and the plate was incubated at 37° C. Color changes of the sensor on the bottom of the plate were monitored by eye over a 6 hour period. After approximately 4 hours, two distinct patterns could be seen. […] The positive control wells for E. coli changed from purple to green to yellow to orange, indicating a pH change of the sensor from 10 to approximately 6. The positive control well for P. aeruginosa changed from purple to green to yellow (a pH change of the sensor from 10 to approximately 7). The wells with the bromosuccinic acid medium gave the most distinction between the two organisms. […]

[5] = test system: Pseudomonas aeruginosa (ATCC number 1014); experiment: as above; details: 0.5% bromosuccinic acid
Method: as §4, §5, §6, §7, §8, §9, §10, §11

[6] = test system: Pseudomonas aeruginosa 33584; experiment: Pattern of inhibition using silicone-emulsion CO2 sensors (Table 3); details: 5.4 mcg; 4 h, 37° C.; 5×10^7 CFU/ml
Description: (§12) Microbial identification using the described CO2 sensors can also be based on the principle of growth inhibition. This system differs from the classical biochemical identification systems, as identification is based on selective growth inhibition by inhibitory agents, such as dyes, antibiotics, and other substances. Once again, the production of CO2 is the measure of growth. The growth pattern produced in the presence of these inhibitory agents identifies the species of the test microorganism. The amount of growth is compared with a growth control well that contains no inhibitor. A profile is derived using a two-stage quadratic discriminate analysis based on the results derived from the battery of inhibitory agents.
(§13) Microtiter plates (96 flat bottom wells) containing 0.05% xylenol blue silicone-emulsion sensors were filled with 100 microliters of microbial growth medium containing no inhibitors (growth control wells) and eighteen different dyes, antibiotics, and other inhibitory substances. Final concentrations of the inhibitors were achieved after addition of 100 microliters of inoculum (final inoculum of 5×10^7 CFU/ml) of the representative microorganisms.
as §2

Escherichia coli 33582 = experiment: as above; details: 5.4 mcg; 4 h, 37° C.; 5×10^7 CFU/ml
Description: as §12, §13, §2

Proteus mirabilis 33583 = experiment: as above; details: 5.4 mcg; 4 h, 37° C.; 5×10^7 CFU/ml
Description: as §12, §13, §2

[7] = test system: Alcaligenes odorans 33585; experiment: as above; details: 5.4 mcg; 4 h, 37° C.; 5×10^7 CFU/ml
Description: as §12, §13, §2

[8] = Staphylococcus aureus, 25923, 4 h, read-out: Percent growth as compared to a growth control without antibiotics
[9] = Escherichia coli, 29194, 4 h, read-out: Percent growth as compared to a growth control without antibiotics
[10] = Pseudomonas aeruginosa, 27853, 4 h, read-out: Percent growth as compared to a growth control without antibiotics
[11] = Enterococcus faecalis, 29212, 4 h, read-out: Percent growth as compared to a growth control without antibiotics
[12] = 0.2 units, 4 h, 37° C., 5×10^7 CFU/ml

CN(C)C1C(=O)C(C(N)=O)=C(O)C2(O)C(=O)C3=C(O)c4c(O)cccc4C(C)(O)C3CC12 (stereo not shown) [Tetracycline]
activity at 0.5 µg/mL [1, 8]: 15% | activity at 0.5 µg/mL (Escherichia coli 29194; [9]): 76% | activity at 0.5 µg/mL [2, 10]: 120% | activity at 0.5 µg/mL [3, 11]: 109%

CC1(C)S[C@@H]2[C@H](NC(=O)Cc3ccccc3)C(=O)N2[C@H]1C(=O)O [Penicillin G]
Percent growth as compared to a growth control without antibiotics [1, 12]: 45% | Percent growth as compared to a growth control without antibiotics (Escherichia coli 29194; [12]): 103% | Percent growth as compared to a growth control without antibiotics [2, 12]: 149% | Percent growth as compared to a growth control without antibiotics [3, 12]: 108%

O=C(O)CC(Br)C(=O)O (stereo not shown) [bromosuccinic acid]
Utilization as carbon source to produce CO2 [4]: able to utilize this carbon source only slightly to produce CO2 | pH of the sensor reached (change from 10) ([4]; four hours, 37° C., by eye): 8.5 pH | Utilization as carbon source to produce CO2 [5]: preferred carbon source | pH of the sensor reached (change from 10) ([5]; four hours, 37° C., by eye): approximately 6 pH

O=C(N[C@H](CO)[C@H](O)c1ccc([N+](=O)[O-])cc1)C(Cl)Cl [Chloramphenicol]
activity at 4 µg/mL [1, 8]: 45% | activity at 4 µg/mL (Escherichia coli 29194; Escherichia coli, 29194, 4 mcg (per milliliter), 4 h, 37° C., 5×10^7 CFU/ml, read-out: Percent growth as compared to a growth control without antibiotics): 14% | activity at 4 µg/mL [2, 10]: 88% | activity at 4 µg/mL [3, 11]: 19%

CN[C@H](CC(C)C)C(=O)N[C@H]1C(=O)N[C@@H](CC(N)=O)C(=O)N[C@H]2C(=O)N[C@H]3C(=O)N[C@H](C(=O)N[C@H](C(=O)O)c4cc(O)cc(O)c4-c4cc3ccc4O)[C@H](O)c3ccc(c(Cl)c3)Oc3cc2cc(c3O[C@@H]2O[C@H](CO)[C@@H](O)[C@H](O)[C@H]2O[C@H]2C[C@](C)(N)[C@H](O)[C@H](C)O2)Oc2ccc(cc2Cl)[C@H]1O [Vancomycin]
activity at 10 µg/mL [1, 8]: 22% | activity at 10 µg/mL (Escherichia coli 29194; [9]): 94% | activity at 10 µg/mL [2, 10]: 106% | activity at 10 µg/mL [3, 11]: 15%

CCn1cc(C(=O)O)c(=O)c2ccc(C)nc21 [Nalidixic acid]
activity at 15 µg/mL [1, 8]: 80% | activity at 15 µg/mL (Escherichia coli 29194; [9]): 18% | activity at 15 µg/mL [2, 10]: 109% | activity at 15 µg/mL [3, 11]: 116%

NC[C@H]1O[C@H](O[C@H]2[C@H](O)[C@@H](O[C@H]3O[C@H](CO)[C@@H](O)[C@H](N)[C@H]3O)[C@H](N)C[C@@H]2N)[C@H](O)[C@@H](O)[C@@H]1O [Kanamycin]
Percent growth as compared to a growth control without antibiotics [6]: 105% | Percent growth as compared to a growth control without antibiotics (Escherichia coli 33582): 66% | Percent growth as compared to a growth control without antibiotics (Proteus mirabilis 33583): 44% | Percent growth as compared to a growth control without antibiotics [7]: 95% | activity at 22 µg/mL [1, 8]: 13% | activity at 22 µg/mL (Escherichia coli 29194; [9]): 91% | activity at 22 µg/mL [2, 10]: 72% | activity at 22 µg/mL [3, 11]: 95%

COc1cccc(OC)c1C(=O)N[C@@H]1C(=O)N2[C@@H]1SC(C)(C)[C@@H]2C(=O)O [Methicillin]
activity at 5 µg/mL ([1]; Staphylococcus aureus, 25923, 5 mcg (per milliliter), 4 h, 37° C., 5×10^7 CFU/ml, read-out: Percent growth as compared to a growth control without antibiotics): 16% | activity at 5 µg/mL (Escherichia coli 29194; Escherichia coli, 29194, 5 mcg (per milliliter), 4 h, 37° C., 5×10^7 CFU/ml, read-out: Percent growth as compared to a growth control without antibiotics): 111% | activity at 5 µg/mL ([2]; Pseudomonas aeruginosa, 27853, 5 mcg (per milliliter), 4 h, 37° C., 5×10^7 CFU/ml, read-out: Percent growth as compared to a growth control without antibiotics): 146% | activity at 5 µg/mL ([3]; Enterococcus faecalis, 29212, 5 mcg (per milliliter), 4 h, 37° C., 5×10^7 CFU/ml, read-out: Percent growth as compared to a growth control without antibiotics): 116%

O=C1CN(/N=C/c2ccc([N+](=O)[O-])o2)C(=O)N1 [Nitrofurantoin]
activity at 15 µg/mL ([1]; Staphylococcus aureus, 25923, 15 mcg (per milliliter), 4 h, 37° C., 5×10^7 CFU/ml, read-out: Percent growth as compared to a growth control without antibiotics): 33% | activity at 15 µg/mL (Escherichia coli 29194; Escherichia coli, 29194, 15 mcg (per milliliter), 4 h, 37° C., 5×10^7 CFU/ml, read-out: Percent growth as compared to a growth control without antibiotics): 14% | activity at 15 µg/mL ([2]; Pseudomonas aeruginosa, 27853, 15 mcg (per milliliter), 4 h, 37° C., 5×10^7 CFU/ml, read-out: Percent growth as compared to a growth control without antibiotics): 112% | activity at 15 µg/mL ([3]; Enterococcus faecalis, 29212, 15 mcg (per milliliter), 4 h, 37° C., 5×10^7 CFU/ml, read-out: Percent growth as compared to a growth control without antibiotics): 110%
